# Reference: patent publication US9097706B2, “Insect-based ex vivo model for testing blood-brain barrier penetration and method for exposing insect brain to chemical compounds” (ENTOMOPHARM APS, priority 2009, dated 2015)
# Read-outs that look alike come from different tables or passages of the source.
# Legend:
# [1] = test system: grasshopper BBB (locusta migratoria brain in its cuticle shell)
# Experimental: 1. […] The insects may be obtained from local suppliers or bred in house. The grasshoppers were reared under crowded conditions at 28° C. and a 12:12 dark:light photocycle and fed fresh grass and bran. Before experiments the grasshoppers were fed ecologically cultivated wheat for two weeks. Animals used are adult males (in some experiments females) between two to four weeks after adult emergence. A cut is made through the frontal part of the locust head comprising the most frontal parts including the antennae, the compound eyes, the brain and all neural connections between the brain and the antennae and the eyes. This preparation in its cuticle shell is placed in a well of a microtitre plate containing the test solution. After various times of exposure the preparation is washed in saline and the brain is dissected under microscope with fine forceps. The neural lamella surrounding the brain is removed in saline and the brain is then […] in saline, centrifuged and the supernatant frozen until analyses. Drug concentration is analysed by HPLC, LC/MSMS or other methods.
# (§1) A cut was made through the frontal part of the head of adult female locusta migratoria. Each brain in its cuticle shell was placed in a 0.12 mg/ml mianserin solution for 5 minutes. The brain was prepared in saline and removed from the cuticle shell and three brains were placed in each test tube containing 100 ul distilled H2O. 200 ul ACN was added to each tube and the tubes were placed in a sonicator and the brains were disintegrated by approximately 5 seconds of sonication. The samples containing the disintegrated brains were centrifuged for 5 minutes (10000 g at 4° C.).
# as §1, with “shell. The brains were washed in Saline. After wash” for “shell and”, “sonication.” for “sonication. The samples containing the disintegrated brains were centrifuged for 5 minutes (10000 g at 4° C.).”
# A cut was made through the frontal part of the head of adult female locusta migratoria. Each brain in its cuticle shell was placed in a 0.12 mg/ml mianserin solution for 5 minutes. The brain was prepared in saline and removed from the cuticle shell. To stain the neural lamella Evans Blue was added and the neural lamella was removed. Three brains were placed in each test tube containing 100 ul distilled H2O. 200 ul ACN was added to each tube and the tubes were placed in a sonicator and the brains were disintegrated by approximately 5 seconds of sonication.
# A cut was made through the frontal part of the head of the adult locusta migratoria. Each brain in its cuticle shell was placed in a 0.9 mg/ml mianserin solution for 5 minutes. The brain was prepared in saline and removed from the cuticle shell. Three brains were placed in a test tube containing 100 ul PBS. 200 ul ACN was added to each tube. The tubes were placed in a sonicator and the brains were disintegrated by approximately 5 seconds of sonication.
# A cut was made through the frontal part of the head of the adult locusta migratoria. Each brain was placed for 5 minutes in a microtiter well with an approximately 0.95 mg/ml solution of mianserin. To stain the neural lamella Evans Blue was added and the neural lamella was removed. Two brains are placed in each test tube and 100 ul distilled H2O and 200 ul ACN is added. The tubes were placed in a sonicator and the brains were disintegrated by approximately 5 seconds of sonication.
# A cut was made through the frontal part of the head of the adult locusta migratoria. […] To stain the neural lamella Evans Blue was added and the neural lamella was removed.
# Blattodea BBB = conditions: for average concentration in brain supernatant measured by LCMS: Blattodea
# Experimental: A cut was made through the frontal part of the head of the Blattodea. Each brain was placed for 5 minutes in a microtiter well with an approximately 1.0 mg/ml solution of trazodone. To stain the neural lamella Evans Blue was added and the neural lamella was removed. Two brains are placed in each test tube and 50 ul distilled H2O and 100 ul ACN is added. The tubes were placed in a sonicator and the brains were disintegrated by approximately 5 seconds of sonication.
# locust brain barrier = assay: Visual inspection of Evans Blue permeation through the locust brain barrier; format: in vitro ADME, Locusta migratoria; conditions: 5 minutes in Evans Blue; neural lamella removed
# Experimental: A cut was made through the frontal part of the head of the adult locusta migratoria. Each brain was placed for 5 minutes in a microtiter well containing a mixture of Evans Blue. The neural lamella was removed from the brain.
# [2] = Locusta migratoria, 5 min, 0.9 mg/ml
smiles,measurement,setting,value
Cn1c(=O)c2c(ncn2C)n(C)c1=O [caffeine],average concentration in brain supernatant measured by LCMS,"[1]; approximately 0.78 mg/ml solution, 5 minutes, neural lamella removed, two brains per tube",1533 ng/mL
same,permeation of the grasshopper BBB (in words),[1]; conclusion from the examples,permeate the grasshopper BBB to a much larger extent than peripheral acting drugs
same,average concentration in brain supernatant measured by LCMS,"Blattodea BBB; approximately 0.1 mg/ml solution, 5 minutes, neural lamella removed, two brains per tube",152 ng/mL
same,average concentration in brain supernatant measured by LCMS,"Blattodea BBB; approximately 1.0 mg/ml solution, 5 minutes, neural lamella removed, two brains per tube",1028 ng/mL
same,permeation of the Blattodea BBB (in words),Blattodea BBB; conclusion from Examples AB-AG,permeate the Blattodea BBB to a much larger extent than atenolol
O=c1n(CCCN2CCN(c3cccc(Cl)c3)CC2)nc2ccccn12 [trazodone],permeation of the grasshopper BBB (in words),[1],permeate the grasshopper BBB to a much larger extent than peripheral acting drugs
same,average concentration in brain supernatant measured by LCMS,[1]; [2],1317 ng/mL
same,permeation of the Blattodea BBB (in words),Blattodea BBB,permeate the Blattodea BBB to a much larger extent than atenolol
same,average concentration in brain supernatant measured by LCMS,"Blattodea BBB; 5 min, 0.1 mg/ml",127 ng/mL
same,average concentration in brain supernatant measured by LCMS,"Blattodea BBB; 5 min, 1 mg/ml",768 ng/mL
CN1CCN2c3ccccc3Cc3ccccc3C2C1 (stereo not shown) [mianserin],[with lamella]/[without lamella] ratio,"[1]; Locusta migratoria, 5 min, 0.1 mg/ml",1.7
same,[with lamella]/[without lamella] ratio,[1]; [2],2.3
same,average concentration in brain supernatant measured by LCMS,"[1]; Locusta migratoria, 5 min, 0.95 mg/ml",1439 ng/mL
CC(C)NCC(O)COc1cccc2ccccc12 (stereo not shown) [propranolol],permeation of the grasshopper BBB (in words),[1],permeate the grasshopper BBB to a much larger extent than peripheral acting drugs
same,average concentration in brain supernatant measured by LCMS,"[1]; Locusta migratoria, 5 min, 0.72 mg/ml",674 ng/mL
Cc1cc(-c2ccc(/N=N/c3ccc4c(S(=O)(=O)O)cc(S(=O)(=O)O)c(N)c4c3O)c(C)c2)ccc1/N=N/c1ccc2c(S(=O)(=O)O)cc(S(=O)(=O)O)c(N)c2c1O [Evans Blue],permeation through the locust brain barrier (visual signs in brain),locust brain barrier,no significant permeation
